Test results reported in patent publication US9126947B2, “Substituted pyridazine carboxamide compounds” (Xcovery Holding Company LLC, priority 2010, dated 2015).
Each block holds one molecule with its values, some of them ahead of it.

Key:
H2228 tumor cells = experiment: Cell viability assay of tumor cells with ALK fusion proteins (H2228); format: cell-based; conditions: Homo sapiens, NCI-H2228; H2228, 72 hours post drug addition; read-out: Inhibition of H2228 tumor cell growth (IC50)
Description: (§1) At 72 hours post drug addition, Cell Titer Blue Reagent (Promega, Madison, Wis.) was added and fluorescence was measured on a Spectramax spectrophotometer (Molecular Devices, Sunnyvale, Calif.) according to the manufacturer's instructions. All experimental points were set up in hextuplicate replicates and were performed at least two independent times. IC50's were calculated using GraphPad Prism version 5 for Windows. The curves were fit using a nonlinear regression model with a log (inhibitor) vs. response formula.

H3122 tumor cells = experiment: Cell viability assay of tumor cells with ALK fusion proteins (H3122); format: cell-based; conditions: Homo sapiens, NCI-H3122; H3122, 72 hours post drug addition; read-out: Inhibition of H3122 tumor cell growth (IC50)
Description: as §1

[1] = test system: SH-SY5Y intracranial tumor; experiment: SH-SY5Y intracranial tumor model; format: in vivo, Balb/C nude mice; conditions: oral gavage, vehicle 25 days
Description: Balb/C nude mice were anesthetized by i.p. injection of pentobarbital sodium (100 mg/kg body weight). One million SH-SY5Y cells in a volume of 10 μl full-culture medium were injected into the caudate putamen region using a small animal stereotactic apparatus. On the 7th day after implantation, the tumor-bearing mice were assigned into 4 groups, PF-1066, Example 18 low dose, Example 18 high dose, and vehicle were given twice daily (BID) by oral gavage, treatment was stopped until the animal is dead. Animal survival and body weight were observed and recorded.

Brain penetration = format: in vivo; conditions: mice, two hours after dosing; compared with Example 1
Description: To determine if a compound can cross the blood-brain-barrier (BBB), mice are dosed with the test compound. Two hours after dosing, mice are sacrificed and blood and brain tissues are collected and analyzed for test compound concentration. Brain penetration is defined as ratio of compound concentration in the brain tissues to that in plasma.

ALK = ALK (Homo sapiens (Human), UniProt Q9UM73); experiment: Ambit kinase binding assay (ALK); conditions: read-out: ALK inhibitory activities in the Ambit assay (IC50)
Sequence of ALK (Q9UM73 19-1620): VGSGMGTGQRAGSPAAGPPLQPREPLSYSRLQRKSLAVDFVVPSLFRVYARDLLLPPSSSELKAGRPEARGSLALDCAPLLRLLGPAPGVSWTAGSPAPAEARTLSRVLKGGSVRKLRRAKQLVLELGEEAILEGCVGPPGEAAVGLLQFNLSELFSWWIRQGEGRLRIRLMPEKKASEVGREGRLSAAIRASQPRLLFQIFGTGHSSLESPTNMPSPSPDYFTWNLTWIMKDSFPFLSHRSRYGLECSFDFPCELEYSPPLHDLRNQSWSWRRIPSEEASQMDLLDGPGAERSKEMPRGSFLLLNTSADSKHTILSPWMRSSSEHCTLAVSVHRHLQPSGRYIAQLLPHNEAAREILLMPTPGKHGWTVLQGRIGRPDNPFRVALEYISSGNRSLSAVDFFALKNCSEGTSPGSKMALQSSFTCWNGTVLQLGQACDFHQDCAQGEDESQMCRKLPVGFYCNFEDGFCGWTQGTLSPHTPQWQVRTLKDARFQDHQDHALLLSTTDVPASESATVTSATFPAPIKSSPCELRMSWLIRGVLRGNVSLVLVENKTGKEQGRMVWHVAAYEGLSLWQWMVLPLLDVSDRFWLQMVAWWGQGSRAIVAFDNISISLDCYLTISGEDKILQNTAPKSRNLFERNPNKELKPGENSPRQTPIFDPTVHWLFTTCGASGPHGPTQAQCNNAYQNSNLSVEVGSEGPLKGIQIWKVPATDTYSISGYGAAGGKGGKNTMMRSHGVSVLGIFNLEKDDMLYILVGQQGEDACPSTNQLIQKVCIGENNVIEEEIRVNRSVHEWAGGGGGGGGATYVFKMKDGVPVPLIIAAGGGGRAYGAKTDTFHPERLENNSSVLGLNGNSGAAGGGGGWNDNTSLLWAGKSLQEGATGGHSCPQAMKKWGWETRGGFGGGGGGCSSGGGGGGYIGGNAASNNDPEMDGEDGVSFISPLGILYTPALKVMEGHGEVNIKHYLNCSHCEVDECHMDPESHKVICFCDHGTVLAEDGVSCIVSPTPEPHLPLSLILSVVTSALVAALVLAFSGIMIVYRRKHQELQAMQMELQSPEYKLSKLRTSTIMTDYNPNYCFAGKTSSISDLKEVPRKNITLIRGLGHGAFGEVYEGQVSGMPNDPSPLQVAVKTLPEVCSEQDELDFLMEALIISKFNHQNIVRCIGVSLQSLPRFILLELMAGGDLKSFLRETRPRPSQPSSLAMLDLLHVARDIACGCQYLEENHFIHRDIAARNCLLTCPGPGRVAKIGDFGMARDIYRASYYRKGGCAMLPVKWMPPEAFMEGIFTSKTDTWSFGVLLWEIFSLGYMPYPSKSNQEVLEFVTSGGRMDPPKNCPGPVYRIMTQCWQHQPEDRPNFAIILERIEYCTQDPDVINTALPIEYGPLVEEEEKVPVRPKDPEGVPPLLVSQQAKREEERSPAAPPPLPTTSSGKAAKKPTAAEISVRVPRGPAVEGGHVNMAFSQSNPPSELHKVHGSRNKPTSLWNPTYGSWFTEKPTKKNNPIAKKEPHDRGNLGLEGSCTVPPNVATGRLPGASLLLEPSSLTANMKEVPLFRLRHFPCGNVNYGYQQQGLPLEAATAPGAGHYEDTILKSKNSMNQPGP
Description: For most assays, kinase-tagged T7 phage strains were grown in parallel in 24-well blocks in an E. coli host derived from the BL21 strain. E. coli were grown to log-phase and infected with T7 phage from a frozen stock (multiplicity of infection 0.1) and incubated with shaking at 32° C. until lysis (˜90 minutes). The lysates were centrifuged (6,000×g) and filtered ([…]) to remove cell debris. The remaining kinases were produced in HEK-293 cells and subsequently tagged with DNA for qPCR detection. […] The liganded beads were blocked with excess biotin and washed with blocking buffer (SeaBlock (Pierce), 1% BSA, 0.05% Tween 20, 1 mM DTT) to remove unbound ligand and to reduce non-specific phage binding. […] Test compounds were prepared as 40× stocks in 100% DMSO and directly diluted into the assay. All reactions were performed in polypropylene 384-well plates in a final volume of 0.04 ml. […] The kinase concentration in the eluates was measured by qPCR.

[2] = Human microsomal stability; format: in vitro ADME; conditions: compared with Example 25 of WO 2009/154769; 1 μM, 1 mg/mL microsomes
Description: Pooled human liver microsomes (1 mg/mL) are incubated at 37° C. in phosphate buffer (pH 7.4) with the test compound (1 μM). The reaction is started with the addition of NADPH. (1 mM final concentration). Incubations are stopped after 0, 5, 10, 20, 40, 60 minutes with the addition of organic solvent. Quenched samples are analyzed for unchanged test compound by LC/MS/MS detection. Percent turnover is determined by the ratio of the amount (peak area) of unchanged test compound remaining in incubated samples to the amount of unchanged test compound in non-incubated samples (0 minutes). Half-life is calculated based on the percent turnover data.

c-Met = c-Met (Homo sapiens (Human), UniProt P08581); experiment: Ambit kinase binding assay (c-Met)
Sequence of c-Met (P08581 25-1390): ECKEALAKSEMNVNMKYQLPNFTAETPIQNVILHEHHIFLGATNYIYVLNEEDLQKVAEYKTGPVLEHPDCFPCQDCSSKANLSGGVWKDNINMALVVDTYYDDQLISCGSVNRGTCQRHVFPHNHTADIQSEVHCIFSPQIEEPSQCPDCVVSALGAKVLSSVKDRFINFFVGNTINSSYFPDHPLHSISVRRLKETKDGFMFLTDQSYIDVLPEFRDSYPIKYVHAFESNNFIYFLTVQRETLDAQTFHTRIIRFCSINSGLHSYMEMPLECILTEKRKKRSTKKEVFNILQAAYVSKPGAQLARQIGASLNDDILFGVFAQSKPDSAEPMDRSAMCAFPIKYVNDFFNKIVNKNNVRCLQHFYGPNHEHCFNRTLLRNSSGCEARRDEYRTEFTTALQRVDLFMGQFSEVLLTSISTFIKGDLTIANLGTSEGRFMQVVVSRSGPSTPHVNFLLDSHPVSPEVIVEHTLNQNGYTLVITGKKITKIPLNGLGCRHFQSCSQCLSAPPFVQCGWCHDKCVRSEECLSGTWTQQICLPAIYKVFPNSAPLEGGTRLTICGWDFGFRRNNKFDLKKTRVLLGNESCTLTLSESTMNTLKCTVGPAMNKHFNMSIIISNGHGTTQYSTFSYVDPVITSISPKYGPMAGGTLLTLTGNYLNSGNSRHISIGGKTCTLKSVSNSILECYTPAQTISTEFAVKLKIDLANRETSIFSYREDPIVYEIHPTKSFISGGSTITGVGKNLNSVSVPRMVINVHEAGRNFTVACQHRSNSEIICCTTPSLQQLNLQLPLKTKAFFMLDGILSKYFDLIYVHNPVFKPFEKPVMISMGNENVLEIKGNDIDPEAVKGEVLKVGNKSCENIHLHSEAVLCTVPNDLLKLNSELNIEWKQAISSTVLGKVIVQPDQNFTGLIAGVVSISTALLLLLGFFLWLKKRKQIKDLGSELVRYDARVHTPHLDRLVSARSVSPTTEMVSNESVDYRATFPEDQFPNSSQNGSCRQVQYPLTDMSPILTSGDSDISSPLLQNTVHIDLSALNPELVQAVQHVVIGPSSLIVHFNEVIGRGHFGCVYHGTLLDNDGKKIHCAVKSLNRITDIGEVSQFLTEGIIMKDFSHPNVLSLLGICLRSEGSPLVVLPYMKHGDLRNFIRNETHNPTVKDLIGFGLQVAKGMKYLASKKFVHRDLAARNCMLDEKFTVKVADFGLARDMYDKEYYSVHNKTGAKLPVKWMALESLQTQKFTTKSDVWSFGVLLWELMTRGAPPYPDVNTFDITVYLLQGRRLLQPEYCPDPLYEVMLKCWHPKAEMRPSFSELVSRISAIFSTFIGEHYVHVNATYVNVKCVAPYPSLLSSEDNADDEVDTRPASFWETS
Description: Assays were performed as described in Fabian et al. (2005) Nature Biotechnology, vol. 23, p. 329 and in Karaman et al. (2008) Nature Biotechnology, vol. 26, p. 127.
For most assays, kinase-tagged T7 phage strains were grown in parallel in 24-well blocks in an E. coli host derived from the BL21 strain. E. coli were grown to log-phase and infected with T7 phage from a frozen stock (multiplicity of infection 0.1) and incubated with shaking at 32° C. until lysis (˜90 minutes). The lysates were centrifuged (6,000×g) and filtered ([…]) to remove cell debris. The remaining kinases were produced in HEK-293 cells and subsequently tagged with DNA for qPCR detection. Streptavidin-coated magnetic beads were treated with biotinylated small molecule ligands for 30 minutes at room temperature to generate affinity resins for kinase assays. The liganded beads were blocked with excess biotin and washed with blocking buffer (SeaBlock (Pierce), 1% BSA, 0.05% Tween 20, 1 mM DTT) to remove unbound ligand and to reduce non-specific phage binding. […] Test compounds were prepared as 40× stocks in 100% DMSO and directly diluted into the assay. All reactions were performed in polypropylene 384-well plates in a final volume of 0.04 ml. The assay plates were incubated at room temperature with shaking for 1 hour and the affinity beads were washed with wash buffer (1×PBS, 0.05% Tween 20). The beads were then re-suspended in elution buffer (1×PBS, 0.05% Tween 20, 0.5 mM non-biotinylated affinity ligand) and incubated at room temperature with shaking for 30 minutes. The kinase concentration in the eluates was measured by qPCR.

H3122 cells = experiment: Cell apoptosis assay of tumor cells with ALK fusion proteins; format: cell-based; conditions: compared with PF-2341066 at the same concentration, 72 h, FIG. 1
Description: For apoptosis experiments, cells were seeded in 12 well plates at 25% confluency and treated in triplicate with ALK TKI. At 72 h post drug addition, cells were collected, washed in PBS, and stained with annexin V and propidium iodide according to the manufacturer's instructions (Vybrant Apooptosis Assay Kit, Invitrogen, Carlsbad, Calif.). Data were collected on a FACSCanto II (BD Biosciences, San Jose, Calif.) and processed using WinList flow cytometry analysis software (Verity Software, Topsham, Me.).

SMILES: C[C@@H]1CN(C(=O)c2ccc(NC(=O)c3cc(O[C@H](C)c4c(Cl)ccc(F)c4Cl)c(N)nn3)cc2)C[C@H](C)N1 [Example 18, {5-[(1R)-1-(2,6-dichloro-3-fluorophenyl)ethoxy]-6-aminopyridazin-3-yl}-N-{4-[((3S,5R)-3,5-dimethylpiperazinyl)carbonyl]phenyl}carboxamide]
IC50 (H2228 tumor cells): < 100 nM
IC50 (H3122 tumor cells): < 30 nM
Median survival time (MST) ([1]; 25 mg/kg BID): 25 days
Median survival time (MST) ([1]; 50 mg/kg BID): 34.5 days
Brain penetration (ratio of concentration in brain tissues to plasma) (Brain penetration): higher brain penetration
IC50 (ALK): < 1 nM
Half-life in human liver microsomes [2]: longer half-life

SMILES: C[C@@H](Oc1cc(-c2cnn(C3CCNCC3)c2)cnc1N)c1c(Cl)ccc(F)c1Cl [PF-2341066, crizotinib, reference compound]
Median survival time (MST) ([1]; 50 mg/kg BID): 28 days

IC50 (c-Met): < 20 nM
IC50 (ALK): > 10 nM
SMILES: CC(Oc1cc(C(=O)Nc2ccncc2)nnc1N)c1c(Cl)ccc(F)c1Cl (centres unmarked) [a, reference compound]

IC50 (ALK): < 1 nM
SMILES: C[C@@H](Oc1cc(C(=O)Nc2ccc(C(=O)N3CCN4CCCC4C3)cc2)nnc1N)c1c(Cl)ccc(F)c1Cl (stereo partly drawn) [Example 13, {5-[(1R)-1-(2,6-dichloro-3-fluorophenyl)ethoxy]-6-aminopyridazin-3-yl}-N-{4-[(3,6-diazabicyclo[4.3.0]non-3-yl)carbonyl]phenyl}carboxamide]

IC50 (c-Met): < 20 nM
IC50 (ALK): > 10 nM
SMILES: COc1ccc(NC(=O)c2cc(OC(C)c3c(Cl)ccc(F)c3Cl)c(N)nn2)cc1 (centres unmarked) [b, reference compound]

IC50 (ALK): > 50 nM
SMILES: C[C@H](Oc1cc(C(=O)Nc2ccc(C(=O)N3CCN(C)CC3)cc2)nnc1N)c1c(Cl)ccc(F)c1Cl [Example 2, {5-[(1S)-1-(2,6-dichloro-3-fluorophenyl)ethoxy]-6-aminopyridazin-3-yl}-N-{4-[(4-methylpiperazinyl)carbonyl]phenyl}carboxamide]

IC50 (H2228 tumor cells): < 100 nM
IC50 (H3122 tumor cells): < 30 nM
IC50 (ALK): < 1 nM
Half-life in human liver microsomes [2]: longer half-life
SMILES: C[C@@H](Oc1cc(C(=O)Nc2ccc(C(=O)N3CCCNCC3)cc2)nnc1N)c1c(Cl)ccc(F)c1Cl [Example 16, {5-[(1R)-1-(2,6-dichloro-3-fluorophenyl)ethoxy]-6-aminopyridazin-3-yl}-N-[4-(1,4-diazaperhydroepinylcarbonyl)phenyl]carboxamide]

IC50 (ALK): < 1 nM
SMILES: C[C@@H](Oc1cc(C(=O)Nc2ccc(C(=O)N3CCNC(C)(C)C3)cc2)nnc1N)c1c(Cl)ccc(F)c1Cl [Example 17, {5-[(1R)-1-(2,6-dichloro-3-fluorophenyl)ethoxy]-6-aminopyridazin-3-yl}-N-{4-[(3,3-dimethylpiperazinyl)carbonyl]phenyl}carboxamide]

IC50 (c-Met): < 20 nM
IC50 (ALK): > 10 nM
SMILES: CC(Oc1cc(C(=O)Nc2ccc(N3CCOCC3)cc2)nnc1N)c1c(Cl)ccc(F)c1Cl (centres unmarked) [c, reference compound]

IC50 (H2228 tumor cells): < 100 nM
IC50 (H3122 tumor cells): < 50 nM
IC50 (ALK): < 1 nM
SMILES: C[C@@H](Oc1cc(C(=O)Nc2ccc(C(=O)N3CCN(C)CC3)cc2)nnc1N)c1c(Cl)ccc(F)c1Cl [Example 1, {5-[(1R)-1-(2,6-dichloro-3-fluorophenyl)ethoxy]-6-aminopyridazin-3-yl}-N-{4-[(4-methylpiperazinyl)carbonyl]phenyl}carboxamide]
Induction of apoptosis in H3122 cells (H3122 cells): more effective

IC50 (ALK): < 1 nM
SMILES: C[C@@H](Oc1cc(C(=O)Nc2ccc(C(=O)N3CCCN(C)CC3)cc2)nnc1N)c1c(Cl)ccc(F)c1Cl [Example 15, {5-[(1R)-1-(2,6-dichloro-3-fluorophenyl)ethoxy]-6-aminopyridazin-3-yl}-N-{4-[(4-methyl(1,4-diazaperhydroepinyl))carbonyl]phenyl}carboxamide]
